Values of other authors, collected in publication PMC3657752 (Inflammatory bowel diseases, 2011).

What was measured:
[1] = tested on: colorectal, colon, and breast cancer models
[2] = tested on: Experimental Autoimmune Encephalomyelitis (EAE) model; conditions: promoting permissive remyelination of spinal cord

CCN(CC)CCNc1ccc2ncn3c4ccc(O)cc4c(=O)c1c23 [Symadex]
activity in models of colorectal, colon, and breast cancer [1]: demonstrated activity | activity in EAE model [2]: active
